Assay [1] in a line: Binding affinity to displace 0.4 nM of [3H]- gallopamil in rat myocardial membranes. Type of assay: cell membranes, Myocardium, Membrane.
For a further assay, the species on record is Rattus norvegicus. As to the kind of experiment: Effective concentration for negative inotropic effect in rat myocardial ventricular strips. The note with it: Cardiac ventricle. Type of assay: functional.

In general, Ki refers to the dissociation constant of the complex between target and ligand, obtained from inhibition or displacement. The term EC50 denotes the concentration that produces a half-maximal response. Low readings indicate a more potent agent, high ones a less potent agent. As for `COc1ccc(CCN(C)CCCC(C#N)(c2cc(OC)c(OC)c(OC)c2)C(C)C)cc1OC` (centres undefined) [GALLOPAMIL], the Ki in assay [1] worked out at 0.0155 µM. In the assay filed under Rattus norvegicus, this compound came in with an EC50 of 0.0218 µM.
In the same order, the values of `COc1ccc(C(C#N)(CCCN(C)CCc2ccc(N(C)C(=O)C([N+]#N)C(F)(F)F)cc2)C(C)C)cc1OC` (centres undefined) are 0.0376 µM and 0.105 µM.
